Data set [1] in a line: Whole blood and lymphatic radioactivity in rats after single oral [14C]EC-18 100 mg/kg. The following applies: 100 mg/kg oral; for Tmax: n=3, 100 mg/kg. Type of data set: in vivo, rat. As for the experimental part:
Male SD rats in fasted condition were administered a single dose of [^14C]EC-18 (oral dose of 100 mg/kg; vehicle: olive oil), and the radioactive concentration of the EC-18 was measured in whole blood samples at 0.5, 1, 2, 3, 4, 6, and 8 hrs after its administration. In parallel, male rats with a cannula inserted into the intestinal tract were administered a single dose of [^14C]EC-18 (oral dose of 100 mg/kg; vehicle: olive oil) and the concentration of EC-18-related radioactivity was measured in lymphatic fluid collected in conscious rats at 0.5, 1, 2, 3, 4, 6, and 8 hrs after its administration (FIG. 60). Then, the values of PK parameters were calculated using the quantitative data from whole blood and lymphatic fluid samples (Table 20). Following a single oral administration of [14C]EC-18, EC-18 concentration in the lymphatic fluid of rats was 10 to 53 times higher than that in whole blood (FIG. 60).

A further data set has as its target T1, OAT1 (Homo sapiens, UniProt Q4U2R8).
T1 construct: expressed in transfected cells; host or cells: HEK-293
Briefly: Drug transporter inhibition, OAT1. The data set is classed as in vitro ADME. To be noted: 100 nM [3H] para-aminohippuric acid; transfected HEK-293 cells. As for the experimental part:
This study examined the potential of EC-18 to interact with the transporter proteins that have been known to be involved in the absorption of commercially available drugs. EC-18 was pre-incubated with HEK-293 cells and LLC-PK1 cells that were transfected with the genes of most drug transporters as follows: OATP1B1, OATP1B3, OAT1, OAT3 and OCT2, and BCRP and P-gp, respectively.

The next data set deals with T2, CYP1A2 (Homo sapiens, UniProt P05177).
T2 construct: incubated with human liver microsomes; from tissue; host or cells: human liver microsomes
T2 sequence (P05177 whole entry): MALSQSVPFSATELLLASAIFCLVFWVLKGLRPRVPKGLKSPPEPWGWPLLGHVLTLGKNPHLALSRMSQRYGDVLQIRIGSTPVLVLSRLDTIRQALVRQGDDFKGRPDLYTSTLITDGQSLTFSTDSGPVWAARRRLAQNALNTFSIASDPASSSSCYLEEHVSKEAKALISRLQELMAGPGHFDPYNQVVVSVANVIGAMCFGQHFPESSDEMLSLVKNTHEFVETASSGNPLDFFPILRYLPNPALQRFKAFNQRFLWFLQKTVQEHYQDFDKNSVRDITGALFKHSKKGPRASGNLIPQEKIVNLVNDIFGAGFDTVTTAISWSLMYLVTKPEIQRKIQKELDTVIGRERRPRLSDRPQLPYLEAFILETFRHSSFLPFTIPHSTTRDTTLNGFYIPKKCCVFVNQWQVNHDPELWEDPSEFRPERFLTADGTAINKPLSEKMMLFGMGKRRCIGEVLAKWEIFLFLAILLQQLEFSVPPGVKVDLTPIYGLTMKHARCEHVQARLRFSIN
Put plainly: in vitro. The data set is classed as in vitro ADME. The following applies: human, microsomes.

Data set [2] in a line: Fertility and early embryonic developmental toxicity study. The data set is classed as in vivo, rat. The following applies: both sexes, SD, rat, in vivo; both males and females. The source says:
(§1) Various toxicology studies have been performed. All studies were GLP-compliant unless otherwise noted.

Another data set concerns SD rat. The data set is described as above. Type of data set: in vivo. To be noted: Oral; 0, 500, 1000, 2000 mg/kg.
Excerpt: as §1

Data set [3] relates to Pseudomonas aeruginosa K (PAK). Briefly: Co-culture of bone marrow-derived monocytes with PAK, CFU. Type of data set: cell-based. To be noted: 100 μg/mL 1 hr; PAK MOI 50. As for the experimental part:
Structural-Activity Relationship Work of EC-18 To assess the optimal structure of EC-18, structural-activity relationship work was examined. A total of five structural analogs of EC-18 were selected by changing one fatty acid chain structure (red boxes in FIG. 43) and evaluated in bone marrow-derived monocytes co-cultured with Pseudomonas aeruginosa K (PAK). All analogs along with EC-18 were inoculated with PAK at the multiplicity of infection (MOI) of 50 for 30 mins and then, treated for 1 hr at the dosage of 100 μg/mL.
As a measure of […], the colony-forming units (CFUs) from each group were examined.

Data set [4] has as its system Balb/c mice, 1 Gy gamma radiation + 5-Fluorouracil + tongue scratch. Briefly: Radiation-induced oral mucositis ARS model: survival, mucositis, blood neutrophils. The data set is classed as in vivo, mouse. To be noted: PLAG 250 mg/kg/day oral. As for the experimental part: In order to further confirm the effect of PLAG on the acute radiation syndrome, an animal model of radiation-induced oral mucositis was prepared and tested as an acute radiation syndrome animal model with severer conditions than those in Example 1 above. First, Balb/c mice (8-week-old female) were purchased from Koatech (Republic of Korea) and maintained in a specific pathogen-free (SPF) environment to establish a radiation-induced oral mucositis model. In this example, first group of oral mucositis induced group (negative control) was compared to the second group where PLAG was orally administered to animals with induced oral mucositis.
Specifically, mice were exposed to 1 Gy whole body gamma radiation and scars of 0.2 cm on the mice tongue were scratched at 0, 7, 10 and 16 days with the same force and depth using an 18 gauge needle. On day 2 post-irradiation, 5-Fluorouracil (50 mg/kg/day) was intraperitoneally administered and PLAG was administered orally at 250 mg/kg/day for 18 days (Table 2).
Oral mucositis level was determined by counting the ulcer formation and edema of the tongue and the incidence of wound atrophy, and calculating the score of oral mucositis by a total of 5 blinded observers. On the 7th and 10th day, the blood of the experimental groups was collected and the number of neutrophils in the blood was measured by measuring the Complete Blood Count (CBC) using a Mindray BC-5300 auto hematology analyzer (Shenzhen Mindray Bio-medical Electronics, China).

Data set [5] can be described thus: Safety assessment in clinical trials. Type of data set: in vivo, human. As for the experimental part:
AEs that were observed involved mild symptoms unrelated to EC-18 administration. […] In the clinical studies with pancreatic cancer patients, there were no SAEs associated with EC-18 administered twice daily (BID) for a total of 1000 mg/day.

Data set [6] has as its system Balb/c mice, whole body radiation 1 Gy. Briefly: Blood immune cell counts (CBC) in radiation-induced leukopenia (RIL) ARS model. The data set is classed as in vivo, mouse. From the text: Balb/c mice (9-week-old male) were purchased from Koatech (Pyeongtaek, Republic of Korea) and maintained in a specific pathogen-free (SPF) environment to establish an animal model of acute radiation syndrome. In order to evaluate the effect of PLAG on the reduction of immune cells by radiation, the following three groups were constructed for this study. (1) normal control group (positive control); (2) Radiotherapy-Radiation induced leukopenia (RIL) group (negative control group); And (3) RIL+PLAG treated group (experimental group).
Specifically, mice treated with RIL and […] were exposed to whole body radiation at 1 Gy (100 rad=1.06 min). For the RIL+PLAG treatment group, 50 mg/kg/day of PLAG (Enzychem Lifesciences Co., Daejeon, Republic of Korea) was orally administered daily for 4 consecutive days after irradiation. The normal controls were not exposed to radiation. On the 5th day after irradiation, blood samples were collected, and then Complete Blood Count (CBC) was measured using a Mindray BC-5300 auto hematology analyzer (Shenzhen Mindray Bio-medical Electronics, China) so that the number of blood leukocytes, neutrophils and lymphocytes in blood could be counted (FIG. 1).

[7] abbreviates: RIL + PLAG 50 mg/kg/day oral 4 days, day 5, n=3.

T1 sequence (Q4U2R8 whole entry, species assumed): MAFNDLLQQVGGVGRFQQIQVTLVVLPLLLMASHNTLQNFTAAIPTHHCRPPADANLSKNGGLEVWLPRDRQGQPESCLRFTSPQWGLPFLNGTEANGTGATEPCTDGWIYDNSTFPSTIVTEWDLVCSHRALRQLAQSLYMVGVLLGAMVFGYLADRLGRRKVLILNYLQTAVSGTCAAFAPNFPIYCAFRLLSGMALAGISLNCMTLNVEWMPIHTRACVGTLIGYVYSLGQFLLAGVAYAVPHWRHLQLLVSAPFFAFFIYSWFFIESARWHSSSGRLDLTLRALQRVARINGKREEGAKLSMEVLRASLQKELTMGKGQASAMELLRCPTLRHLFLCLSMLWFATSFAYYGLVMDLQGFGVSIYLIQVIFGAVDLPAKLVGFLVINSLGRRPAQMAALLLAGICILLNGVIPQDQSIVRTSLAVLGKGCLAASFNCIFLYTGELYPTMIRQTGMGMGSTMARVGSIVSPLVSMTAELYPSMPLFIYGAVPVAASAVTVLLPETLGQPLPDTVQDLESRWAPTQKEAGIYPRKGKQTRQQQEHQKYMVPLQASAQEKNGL

Usually Tmax stands for the time at which the peak concentration occurs. As a reminder, the IC50 is the midpoint of a concentration-inhibition curve. In general, NOAEL refers to the highest dose or exposure tested at which no adverse effect was seen. For `CCCCC/C=C\C/C=C\CCCCCCCC(=O)OC(COC(C)=O)COC(=O)CCCCCCCCCCCCCCC` (stereo not shown) [EC-18, 1-palmitoyl-2-linoleoyl-3-acetylglycerol], in data set [1], the “AUC0-last in lymphatic fluid relative to whole blood” value is reported as 41 times and the “Cmax in lymphatic fluid relative to whole blood” value worked out at 31 times. For the same compound, the Tmax in [1] (Lymphatic Fluid) worked out at 7.0 h. Also, the Tmax in [1] (Whole Blood, fasted) worked out at 3.8 h. For the same compound, the half-inhibitory concentration (IC50) against OAT1 is over 0.032 mM. On CYP1A2, the half-inhibitory concentration (IC50) was 24.4 mM. The same compound registered a no-observed-adverse-effect level (NOAEL) in data set [2] of 2000 mg/kg/day. In addition, the mortality entry in the data set with SD rat is on record as “No dead animals”. Further, the “colony-forming units (CFUs) vs other analogs or control groups” value in data set [3] was “significantly higher”. For the same compound, in data set [4], the oral mucositis score entry is on record as “significantly decreased” and the “visually confirmed oral mucositis levels vs non-PLAG-treated group” value was “significantly reduced”. Moreover, the “neutrophil number in blood” value in data set [4] (days 7 and 10) is recorded as “significantly increased”. In addition, the survival rate in data set [4] (day 18, n=7) was found to be 85%. Besides, the adverse events result in data set [5] (five clinical trials) is reported as “no adverse events (AEs) that could be considered serious or severe”. Also, the “SAEs associated with EC-18” value in data set [5] (pancreatic cancer patients, BID, total 1000 mg/day) is reported as “no SAEs”. Besides, in data set [5] (single- and multiple-dose 500 to 4000 mg), the accumulation entry is “no accumulation with repeated-dosing was observed”. For the same compound, in data set [6] (PLAG 50 mg/kg/day, day 5), the “increase of blood leukocyte count vs RIL group” value amounted to 63%, the “increase of blood lymphocyte count vs RIL group” value worked out at 85% and the “increase of blood neutrophil count vs RIL group” value was 34%. Besides, in data set [6] (setting [7]), the Lymphocyte is on record as 2.2±0.42 10^3/μL, the Neutrophils is 1.17±0.35 10^3/μL and the White blood cells was 3.56±0.84 10^3/μL.

For the origin of these results see patent US12076307B2, “Compositions for prevention or treatment of acute radiation syndrome and other radiation exposure” (priority 2017, dated 2024).
